Measurements published in patent publication US12383628B2 (priority 2016, dated 2025).
Values joined by “and” are separate entries in the source; they are usually repeats but may differ in a detail not shown here. Equal entries are not always repeated. Square brackets hold non-standard residues; d marks the D form. Ends that are not written are not given here. Peptide text beside a SMILES is read from it. Phe(3-Br) = N[C@@H](Cc1cccc(Br)c1)C(=O)O; Dmt = Cc1cc(O)cc(C)c1C[C@H](N)C(=O)O; β3hF = N[C@H](CC(=O)O)Cc1ccccc1

Columns and labels:
KOR = KOR (Homo sapiens, UniProt P41145); assay: Binding tests (Ki) KOR
KOR, sequence (P41145 whole entry): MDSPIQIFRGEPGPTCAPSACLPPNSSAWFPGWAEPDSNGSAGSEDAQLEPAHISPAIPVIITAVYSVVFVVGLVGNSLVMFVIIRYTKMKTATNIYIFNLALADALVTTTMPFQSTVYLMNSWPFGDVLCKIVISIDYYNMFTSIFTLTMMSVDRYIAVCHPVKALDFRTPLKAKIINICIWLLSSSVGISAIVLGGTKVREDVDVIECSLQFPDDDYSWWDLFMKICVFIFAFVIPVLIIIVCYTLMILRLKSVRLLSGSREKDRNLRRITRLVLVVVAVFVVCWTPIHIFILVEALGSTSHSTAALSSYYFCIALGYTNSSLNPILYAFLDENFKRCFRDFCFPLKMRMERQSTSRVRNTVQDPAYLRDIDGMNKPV

DOR = DOR (Homo sapiens, UniProt P41143); assay: Binding tests (Ki) DOR
DOR, sequence (P41143 whole entry): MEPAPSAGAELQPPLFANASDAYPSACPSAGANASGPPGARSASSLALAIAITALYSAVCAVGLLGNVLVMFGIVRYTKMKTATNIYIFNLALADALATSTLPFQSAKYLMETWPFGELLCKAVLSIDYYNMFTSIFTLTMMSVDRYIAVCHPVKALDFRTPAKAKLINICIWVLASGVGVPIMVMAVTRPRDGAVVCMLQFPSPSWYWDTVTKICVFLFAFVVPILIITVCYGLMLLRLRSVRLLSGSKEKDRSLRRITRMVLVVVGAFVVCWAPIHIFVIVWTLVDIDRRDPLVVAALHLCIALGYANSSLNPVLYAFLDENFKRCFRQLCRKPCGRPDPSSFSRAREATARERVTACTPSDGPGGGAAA

MOR = MOR (Homo sapiens, UniProt P35372); assay: Binding tests (Ki) MOR
MOR, sequence (P35372 whole entry): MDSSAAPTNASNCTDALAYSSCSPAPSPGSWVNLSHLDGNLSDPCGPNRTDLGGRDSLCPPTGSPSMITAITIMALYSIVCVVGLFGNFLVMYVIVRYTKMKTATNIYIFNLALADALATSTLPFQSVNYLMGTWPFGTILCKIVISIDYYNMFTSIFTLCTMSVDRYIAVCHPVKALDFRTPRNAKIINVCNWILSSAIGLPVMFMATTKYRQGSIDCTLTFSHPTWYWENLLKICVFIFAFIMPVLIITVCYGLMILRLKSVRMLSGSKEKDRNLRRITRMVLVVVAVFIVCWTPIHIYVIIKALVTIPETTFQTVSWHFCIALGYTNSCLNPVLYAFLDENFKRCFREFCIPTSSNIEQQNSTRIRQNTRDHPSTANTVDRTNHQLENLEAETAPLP

[1] = Stability and degradability of biogels in human plasma (Example 8); format: in vitro ADME; conditions: human plasma, 37° C.; for half-life at 14 μM: human, in solution
Procedure: After centrifugation at 14 000 rpm for 15 minutes, 100 μL supernatant was diluted with 100 μL milliQ water in the injection vial. Injection samples were vortexed for 5 seconds and were analyzed by HPLC. […] Calculations were performed using Microsoft® Office Professional 2010 Excel.

[2] = Dynamic rheometry of hydrogels (storage modulus G′); format: physicochemical
Procedure: Dynamic rheometry measurements were performed on an AR-G2 rheometer (TA Instruments) equipped with electrically heated plates and a 10 mm-diameter aluminium parallel plate-plate geometry. Viscoelastic properties were measured by oscillatory frequency sweeps at 37° C. in the range between 0.01 and 10 Hz, using a controlled strain of 0.05%. Hydrogel samples were made 12 h in advance. A ring-shaped reservoir filled with a saturated NH4Cl solution was used as a solvent trap.

[3] = Peptide gelation (tilted tube / inverted vial test, minimum gelation concentration); format: physicochemical; conditions: for Minimum gelation concentration (w/v % in PBS): '/' = no gel
Procedure: The peptide gelation occurred by dissolving the TFA salt of the hexapeptide (2 mg) in 100 μL of PBS solution (pH 7.4) or physiological saline solution (0.9% NaCl).
Both peptides 2 and 4 (Table 1) gave a transparent gel in the same conditions (PBS 10 mM at pH 7.4 with a minimum gelation concentration of 24 mM; 2% w/v). To evaluate the mechanical properties of these hydrogels in a more quantitative manner, rheological experiments were performed. The viscoelastic properties of the peptide hydrogels were measured by dynamic rheometry at 37° C. This technique allowed to measure the storage modulus G′ (corresponding to the material's stiffness or rigidity), loss modulus G″ (corresponding to the viscous properties of the material) and loss factor tan (o) (ratio of G″ over G′). According to the Winter-Chambon criterion, a material reaches gelation in rheological terms if the phase angle o gets frequency-independent (F. Chambon et al., 1987 and H. Winter et al., 1987).
The peptide gelation occurred by dissolving the TFA salt of the peptide in 100 μL of PBS solution or physiological saline solution (0.9% NaCl) (pH 7.4).
The peptide gelation occurs by dissolving the TFA salt of the hydrogelator (1 or 2 mg) in 100 μL of aqueous media, PBS solution (pH 7.4) or physiological saline solution (0.9% NaCl). After successive vortexing and sonication, the gel is left to rest overnight at room temperature.
The hydrogelation was realized under physiologically relevant conditions, namely via the addition of phosphate-buffered saline (PBS) or sterile physiological saline solution (0.9% NaCl). The needed amount of hydrogelator was weighed in an Eppendorf® and solubilized by the addition of the above solutions. After vortex and sonication steps, the resulting solution was left at room temperature until gelation occurred. The gelation was qualitatively verified by the inverted vial test (if no gravitational flow was visible the gelation was considered successful). It can be noticed that all peptide hydrogelators depicted formed gels in PBS and saline solution at a concentration of 1 to 2% w/v.

L929 mouse fibroblasts = assay: Cytotoxicity, Live/Dead viability staining on hydrogels (Example 9); format: cell-based
Procedure: Hydrogels were prepared at 1, 2 or 3 mg/100 μL as duplicate in a 96-well ULA plate (Cat #CORN3474; Corning-Costar, 60 μL each well). The gels were photographed and pre-equilibrated before seeding with cells. For equilibration, gels were incubated at room temperature in 40 μL of L929 culture medium with double-strength Anti-Anti (Cat #15240062, GIBCO) for 2 h prior to seeding with cells. The equilibration medium was removed before cell seeding and retained to examine if the gels dissolved (even partially) or disintegrated into the culture medium. Next, […] mouse fibroblasts (ATCC) were seeded onto hydrogels at a concentration of 200,000 cells/ml in a volume of 50 μl. The cells were photographed immediately after seeding, observed by microscopy 2 h post-seeding and then observed and photographed at 24 h post-seeding. The cell culture medium consisted of MEM+GlutaMAX I (Cat #41090-036; GIBCO); 10% foetal bovine serum (Cat #12003C; SAFC, Sigma), 2× Anti-Anti (Cat #[…]) and 1× Non-Essential Amino Acids (Cat #41090-036; GIBCO).
Bright field microscopy was performed through use of a IX71 inverted microscope with NIS-Elements F3.0 imaging software (Olympus). The TE2000 Eclipse fluorescent microscope with NIS-Elements AR3.2 software (Nikon) was used for fluorescence imaging microscopy. Automated cell counting was performed on the NC-200 NucleoCounter using proprietary lysis and stabilising reagents and cassettes (ChemoMetec).
The viability and distribution of cells was assessed using a LIVE/DEAD Viability/Cytotoxicity Kit *for Mammalian cells* (Live-Dead Kit), (Cat #13224; Molecular Probes). Briefly, a working solution of live/dead solution was made as per manufacturer's instructions by adding 1.25 μl of Calcein AM (solution A) to 2.5 ml of pre-warmed PBS. The solution was thoroughly mixed by vortex and 2.5 μl of Ethidium homodimer (solution B), was added before vortexing a second time to mix. Excess medium was removed and the gels rinsed with 20 μl of warm PBS before a 40 μl of Live/Dead kit working solution was added to each well. The plate was incubated in a 37° C. cell culture incubator for 20 min before viewing using a fluorescent microscope. Green fluorescence was emitted from the cytoplasm of viable cells (excitation/emission ˜495 nm/˜515 nm) while dead cell nuclei fluoresced red (excitation/emission ˜495/˜635 nm) allowing a distinction to be made between viable and dead cells.

in vitro [4] = conditions: human, plasma
Procedure: Human plasma was obtained from the Belgian Red Cross (Vlaams-Brabant, Leuven). Prior to the stability test, selectivity, stability of the compound in the injection solvent, linearity, accuracy and precision of the method were investigated. Frozen (−20° C.) human plasma samples were thawed and thermostated to 37±2° C. Dissolution of the lyophilized peptide and consecutive dilutions were performed in water. The resulting aqueous solutions of each peptide individually was spiked in human plasma (10:90 v/v) with final plasma concentrations of 9 μM.
On every time point 100 μL spiked plasma was transferred to a 500 μL Eppendorf tube and a protein crash was performed using the corresponding precipitation solvent (4° C.). Suspensions were vortexed for 15 s and placed at 4° C. for 30 to 45 min. After centrifugation at 18 625 g for 20 min, 100 μL supernatant was diluted with 100 μL water in the injection vial.
Injection samples were vortexed for 5 sand placed in the autosampler. […] Concentrations were calculated by use of the calibration curve and transferred to a semi-log chart presenting the log concentrations as a function of time. The optimum curve was used to calculate the peptide half-life. Calculations were performed using Microsoft® Office Professional 2010 Excel.

[5] = TEM / cryo-TEM fibre morphology of hydrogels; format: physicochemical; conditions: cryoTEM and negative staining, Example 9
Procedure: Formvar carbon-coated 400-mesh copper grids (Agar Scientific, Stansted, United Kingdom) were treated with plasma using an ELMO Glow discharge system to clean the grid surface and to render the carbon surface hydrophilic. Hydrogel samples were prepared 12 h in advance as described above. Small aliquots of sample (5 μL) were pipetted onto the carbon grids for adsorption. After 30 s, excess of sample was removed by using a Whatman 541 filter paper. The loaded grids were stained during 10 s with 1% uranyl formate after which the grids were air-dried. Samples were analysed using a JEOL JEM-1400 transmission electron microscope, operating at accelerating voltage of 120 kV. Images were recorded on a CMOS TemCam-F416 camera and accessory software of TVIPS.
200-mesh copper grids coated with perforated carbon film (Lacey carbon film: ProSci-Tech Old, Australia) were used and were glow discharged in nitrogen for 5 s immediately prior to use. Hydrogel samples were prepared 12 h in advance as described above. Small aliquots of sample (4 μL) were pipetted onto the carbon grids for adsorption. After 30 s, excess of sample was removed by using a Whatman 541 filter paper. The grid was then plunged into liquid ethane cooled by liquid nitrogen. Frozen grids were stored in liquid nitrogen until required. Samples were analysed using a Gatan 626 cryoholder and Tecnai 12 Transmission electron microscope, operating at accelerating voltage of 120 kV. Images were recorded using an FEI Eagle 4k×4k CCD camera.

pH of the hydrogel = format: physicochemical; conditions: listed as MBG-1
in vitro [6] = conditions: human, plasma, 37° C., in solution
Procedure: Human plasma was obtained from the Belgian Red Cross (Vlaams-Brabant, Leuven). […] Frozen (−20° C.) human plasma samples were thawed and thermostated to 37+2° C. Dissolution of the lyophilized peptide and consecutive dilutions were performed in water. […] On every time point 100 μL spiked plasma was transferred to a 500 μL Eppendorf tube and a protein crash was performed using 300 μL methanol+0.1% TFA (4° C.). Suspensions were vortexed for 15 seconds and placed at 4° C. for 30 to 45 minutes. After centrifugation at 14000 rpm for 20 minutes, 100 μL supernatant was diluted with 100 μL water in the injection vial. Injection samples were vortexed for 5 seconds and placed in the autosampler. […] Concentrations were calculated by use of the calibration curve and transferred to a semi-log chart presenting the log concentrations as a function of time. The optimum curve was used to calculate the peptide-half life. Calculations were performed using Microsoft® Office Professional 2010 Excel.

Compound | Ki (KOR) [nM] | Ki (DOR) [nM] | Ki (MOR) [nM] | Minimum gelation concentration (w/v % in PBS) [3] | Cytotoxicity in vitro (L929 mouse fibroblasts) | half-life at 9 μM (in vitro [4]) [min] | Fibre diameter [5] [nm] | other results
Cc1cc(O)cc(C)c1C[C@H](N)C(=O)N1CCC[C@H]1C(=O)N[C@@H](Cc1ccccc1)C(=O)N[C@@H](Cc1ccccc1)C(=O)N[C@@H](CCC(N)=O)C(=O)N[C@@H](Cc1ccccc1)C(=O)N[C@@H](CCC(N)=O)C(=O)N[C@@H](Cc1ccccc1)C(=O)N[C@@H](CCCCN)C(N)=O [CM-56, Dmt-Pro-Phe-Phe-Gln-Phe*-Gln-Phe-Lys-NH2] (H-[Dmt]PFFQFQFK-NH2; N-terminus assumed) | 337 | 176 | 65 | – | – | – | – | –
Cc1cc(O)cc(C)c1C[C@H](N)C(=O)N[C@H](CCCCN)C(=O)N[C@@H](Cc1ccccc1)C(=O)N[C@@H](Cc1ccccc1)C(=O)N[C@@H](CCC(=O)O)C(=O)N[C@@H](Cc1ccccc1)C(=O)N[C@@H](CCC(N)=O)C(=O)N[C@@H](Cc1ccccc1)C(=O)N[C@@H](CCCCN)C(N)=O [CM-53, Dmt-DLys-Phe-Phe-Glu-Phe*-Gln-Phe-Lys-NH2] (H-[Dmt][dK]FFEFQFK-NH2; N-terminus assumed) | 337 | 24 | 7.4 | – | – | – | – | Time at which degradation of the heptapeptide into the N-terminal pentapeptide started [1]: 7.5 min; Time at which degradation of the pentapeptide into tripeptide was observed [1]: 60 min; Time of appearance of the heptapeptide (loss of Phe-Lys-NH2) [1]: 2.5 min; half-life at 14 μM [1]: ~18 min
H-Phe(3Br)-Gln-Phe(3Br)-Gln-Phe(3Br)-Lys-NH2 (H-[Phe(3-Br)]Q[Phe(3-Br)]Q[Phe(3-Br)]K-NH2) [peptide 33] | – | – | – | 1-2 w/v % | – | – | – | Gel strength compared to the non-halogenated peptide [2]: stronger gels
NCCCC[C@H](NC(=O)[C@H](Cc1ccccc1)NC(=O)[C@H](CCC(N)=O)NC(=O)[C@H](Cc1ccccc1)NC(=O)C[C@H](Cc1ccccc1)NC(=O)[C@H](CCC(=O)O)NC(=O)[C@@H](N)Cc1ccccc1)C(N)=O [peptide 27, H-Phe-Glu-13;;-homo-Phe-Phe-Gln-Phe-Lys-NH2] (H-FE[β3hF]FQFK-NH2) | – | – | – | – | showed no cytotoxicity in vitro | ~25 | ~5 | –
Cc1cc(O)cc(C)c1C[C@H](N)C(=O)N1CCC[C@H]1C(=O)N[C@@H](Cc1c[nH]c2ccccc12)C(=O)N[C@@H](Cc1ccccc1)C(=O)N[C@@H](CCC(N)=O)C(=O)N[C@@H](Cc1ccccc1)C(=O)N[C@@H](CCC(N)=O)C(=O)N[C@@H](Cc1ccccc1)C(=O)N[C@@H](CCCCN)C(N)=O [CM-58, Dmt-Pro-Trp-Phe-Gln-Phe*-Gln-Phe-Lys-NH2] (H-[Dmt]PWFQFQFK-NH2; N-terminus assumed) | 120 | 15 | 7.5 | – | – | – | – | half-life at 14 μM [1]: ~12 min
WEWQWK-NH2 [peptide 12, H-Trp-Glu-Trp*-Gln-Trp-Lys-NH2] | – | – | – | 1 w/v % | showed no cytotoxicity in vitro | ~21 | ~5 | –
Cc1cc(O)cc(C)c1C[C@H](N)C(=O)N1CCC[C@H]1C(=O)N[C@@H](Cc1ccccc1)C(=O)N[C@@H](Cc1ccccc1)C(=O)N[C@@H](CCC(=O)O)C(=O)N[C@@H](Cc1ccccc1)C(=O)N[C@@H](CCC(N)=O)C(=O)N[C@@H](Cc1ccccc1)C(=O)N[C@@H](CCCCN)C(N)=O [CM-54, Dmt-Pro-Phe-Phe-Glu-Phe*-Gln-Phe-Lys-NH2] | – | – | 135 | – | – | – | – | –
KFQFEF-NH2 [peptide 18, H-Lys-Phe-Gln-Phe*-Glu-Phe-NH2] | – | – | – | 2 w/v % | showed no cytotoxicity in vitro | ~5 | ~5 | –
FQFQFK-NH2 [peptide 16, H-Phe-Gln-Phe*-Gln-Phe-Lys-NH2] | – | – | – | 2 w/v % | showed no cytotoxicity in vitro | ~3 | ~5 | Minimum gelation concentration (MGC) ([3]; PBS or saline solution, Example 9): 1 % w/v
FEFQFK [peptide 1, H-Phe-Glu-Phe*-Gln-Phe-Lys-OH] | – | – | – | – | – | – | – | pH of the gel (pH of the hydrogel): < 4 and 3.49; half-life at 72 μM (in vitro [6]): ~2 min; Minimum gelation concentration ([3]; in mQ:PBS 50:50): 1 (in mQ:PBS w/v %
